Source: ChEMBL document CHEMBL1147725, “Identification and biological characterization of 6-aryl-7-isopropylquinazolinones as novel TRPV1 antagonists that are effective in models of chronic pain” (J Med Chem, 2006)

Target: Transient receptor potential cation channel subfamily V member 1 (Homo sapiens, UniProt Q8NER1)
Experiment: Inhibition of calcium influx evoked by capsaicin in human TRPV1 expressing cells by fluorescence assay
Format: functional

Sequence of Transient receptor potential cation channel subfamily V member 1 (Q8NER1 whole entry): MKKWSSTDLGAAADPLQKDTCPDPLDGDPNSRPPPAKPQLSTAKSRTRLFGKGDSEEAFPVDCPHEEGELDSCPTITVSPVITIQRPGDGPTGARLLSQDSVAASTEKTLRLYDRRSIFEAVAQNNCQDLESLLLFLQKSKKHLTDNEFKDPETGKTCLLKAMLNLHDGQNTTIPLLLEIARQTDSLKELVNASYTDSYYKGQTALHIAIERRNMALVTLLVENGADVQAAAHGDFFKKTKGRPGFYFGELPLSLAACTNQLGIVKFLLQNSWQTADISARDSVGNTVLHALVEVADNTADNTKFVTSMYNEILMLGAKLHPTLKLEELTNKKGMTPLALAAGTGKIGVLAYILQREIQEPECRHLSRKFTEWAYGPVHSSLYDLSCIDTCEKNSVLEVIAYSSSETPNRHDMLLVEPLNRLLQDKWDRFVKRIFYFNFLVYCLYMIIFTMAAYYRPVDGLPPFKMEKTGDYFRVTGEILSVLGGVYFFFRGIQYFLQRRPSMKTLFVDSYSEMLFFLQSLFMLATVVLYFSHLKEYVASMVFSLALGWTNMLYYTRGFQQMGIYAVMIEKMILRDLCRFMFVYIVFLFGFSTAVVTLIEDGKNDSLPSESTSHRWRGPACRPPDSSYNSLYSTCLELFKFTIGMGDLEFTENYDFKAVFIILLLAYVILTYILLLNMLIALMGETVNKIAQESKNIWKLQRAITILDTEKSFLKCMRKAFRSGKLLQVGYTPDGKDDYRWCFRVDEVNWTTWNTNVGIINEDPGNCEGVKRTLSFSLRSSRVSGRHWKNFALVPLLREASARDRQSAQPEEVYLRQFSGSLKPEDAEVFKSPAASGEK

## CCCOc1cc(-c2cc3c(=O)[nH]c(C)nc3cc2C(C)C)ccc1Cl
  IC50: 40 nM
